Measured values from article PMC3265452 (PLoS Neglected Tropical Diseases, 2012).
Where a name gives a salt, the structure may show the parent alone.

target: AaDOP2 (Aedes aegypti, UniProt H6D5H2); test: AaDOP2 antagonist screen of the LOPAC1280 library (HEK-CRELuc-Aadop2 cells, luminescence); assay type: cell-based; settings: not given
Sequence (H6D5H2 1-476): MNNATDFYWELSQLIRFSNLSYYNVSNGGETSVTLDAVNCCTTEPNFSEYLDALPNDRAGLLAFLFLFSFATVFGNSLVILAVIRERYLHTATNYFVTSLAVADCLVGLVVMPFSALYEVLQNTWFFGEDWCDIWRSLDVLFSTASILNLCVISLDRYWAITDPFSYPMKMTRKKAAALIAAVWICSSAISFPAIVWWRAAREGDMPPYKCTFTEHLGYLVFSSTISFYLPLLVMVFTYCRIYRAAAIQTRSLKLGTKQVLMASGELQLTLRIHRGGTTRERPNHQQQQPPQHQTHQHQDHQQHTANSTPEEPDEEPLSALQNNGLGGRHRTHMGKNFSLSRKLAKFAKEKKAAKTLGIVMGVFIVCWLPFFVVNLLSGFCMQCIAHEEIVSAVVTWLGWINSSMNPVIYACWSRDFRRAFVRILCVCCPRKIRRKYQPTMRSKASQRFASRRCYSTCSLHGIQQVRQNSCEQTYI

| Structure (SMILES) | Compound effect (percent receptor signaling in presence of test compound, relative lux units relative to the SCH23390 control) |
| --- | --- |
| CN1CCc2cccc3c2[C@H]1Cc1ccc(O)c(O)c1-3 [Compound 48, Apomorphine hydrochloride hemihydrate] | 54 |
| COC(=O)c1c(-c2cc(OC)c(OC)c(OC)c2)c2ccnc(OCc3ncccn3)c2c(=O)n1Cc1ccnc(C)c1 [Compound 1210, T-0156] | 56 |
| NC(CCCCCP(=O)(O)O)C(=O)O (racemic) [Compound 57, (±)-2-Amino-7-phosphonoheptanoic acid] | 93 |
| O=c1c(-c2ccc(O)cc2)coc2cc(O)ccc12 [Compound 410, Daidzein] | 47 |
| Cn1cnc2c1c(=O)[nH]c(=O)n2C [Compound 1175, Theobromine] | 110 |
| COc1ccc2c(c[n+](C)c3c4cc5c(cc4ccc23)OCO5)c1OC [Compound 241, Chelerythrine chloride] | 112 |
| CN1CCc2cc3c(cc2[C@H]1[C@@H]1OC(=O)c2c1ccc1c2OCO1)OCO3 [Compound 192, (+)-Bicuculline] | 94 |
| C[C@]12CC[C@@H](O)C[C@@H]1CC[C@@H]1[C@@H]2CC[C@]2(C)[C@@H](O)CC[C@@H]12 [Compound 86, 5alpha-Androstane-3alpha,17beta-diol] | 98 |
| CC(C)(Oc1ccc(C2CC2(Cl)Cl)cc1)C(=O)O (centres unmarked) [Compound 217, Ciprofibrate] | 97 |
| O=C(O)c1cc(O)c2ccc(Cl)cc2n1 [Compound 333, 7-Chlorokynurenic acid] | 79 |
| COC(=O)[C@H]1[C@H]2C[C@@H]3c4[nH]c5cc(OC)ccc5c4CCN3C[C@H]2C[C@@H](OC(=O)c2cc(OC)c(OC)c(OC)c2)[C@@H]1OC [Compound 24, Reserpine] | 113 |
| O=P(O)(O)C(Cl)(Cl)P(=O)(O)O [Compound 384, Clodronic acid] | 83 |
| C[C@@H]1O[C@H](C[N+](C)(C)C)C[C@H]1O.[Cl-] (racemic) [Compound 814, (±)-Muscarine chloride] | 104 |
| CC(C)NP(=O)(NC(C)C)OP(=O)(NC(C)C)NC(C)C [Compound 1151, Tetraisopropyl pyrophosphoramide] | 111 |
| COc1ccccc1N1CCN(CCCNc2c(C)c(=O)n(C)c(=O)n2C)CC1 [Compound 1240, Urapidil, 5-Methyl-] | 91 |
| CCC1(C2=NCCN2)Cc2ccccc2O1 (centres unmarked) [Compound 485, Efaroxan hydrochloride] | 74 |
| O=C1O/C(=C/Br)CCC1c1cccc2ccccc12 (centres unmarked) [Compound 159, Bromoenol lactone] | 103 |
| CCCNC(C)C(=O)Nc1ccccc1C (centres unmarked) [Compound 997, Prilocaine hydrochloride] | 95 |
| O=C(O)CCCCCCC1C(=O)NC(=O)N1CCC(O)C1CCCCC1 (centres unmarked) [Compound 888, BW 245C] | 120 |
| CC(=O)c1c(O)c(C)c(O)c(Cc2c(O)c3c(c(C(=O)/C=C/c4ccccc4)c2O)OC(C)(C)C=C3)c1O [Compound 1050, Rottlerin] | 35 |
| O=C(O)CP(=O)(O)O [Compound 964, Phosphonoacetic acid] | 84 |
| N[C@@H](Cn1oc(=O)[nH]c1=O)C(=O)O [Compound 1032, (+)-Quisqualic acid] | 80 |
| CN(C)CCCN1c2ccccc2Sc2ccc(C(F)(F)F)cc21 [Compound 1163, Triflupromazine hydrochloride] | 12 |
| NC12CC3CC(CC(C3)C1)C2 [Compound 25, Amantadine hydrochloride] | 84 |
| C=C[C@H]1C[N@@]2CC[C@H]1C[C@@H]2[C@@H](O)c1ccnc2ccc(OC)cc12 [Compound 1029, Quinidine sulfate] | 69 |
| COc1ccccc1N1CCN(CCCCNC(=O)c2ccc3ccccc3c2)CC1 [Compound 193, BP 897] | 54 |
| O=C(O)C1CN(CCCP(=O)(O)O)CCN1 (racemic) [Compound 329, (±)-CPP] | 91 |
| Oc1cc(-c2ccccc2)nc2nc(Cl)ccc12 [Compound 279, 7-Chloro-4-hydroxy-2-phenyl-1,8-naphthyridine] | 100 |
| Cc1cc(C)c(NC(=O)C[C@H](CC(=O)O)c2cccc3ccccc23)c(C(=O)N2CCC3(CCCC3)CC2)c1 [Compound 664, CR 2945] | 101 |

same assay, conditions: 10 µM compound, 300 nM dopamine, 2 hr; hit = compound effect <20

| Structure (SMILES) | Compound effect (percent receptor signaling in presence of test compound, relative lux units relative to the SCH23390 control) |
| --- | --- |
| O=C(O)Cc1c[nH]c2ccc(O)cc12 [Compound 608, 5-Hydroxyindolacetic acid] | 85% |
| O=C1Nc2ccccc2/C1=C1/Nc2ccccc2/C1=N\O [Compound 630, Indirubin-3'-oxime] | 23% |
| Br.CN=c1nc(-c2ccccc2)n(-c2ccccc2)s1 [Compound 1100, SCH-202676 hydrobromide] | 102% |
| CCCCC#Cc1nc(N)c2ncn([C@@H]3O[C@H](C(=O)NCC)[C@@H](O)[C@H]3O)c2n1 [Compound 600, HE-NECA] | 99% |
| CC1=C(C(=O)O)N2C(=O)[C@@H](NC(=O)[C@H](N)c3ccccc3)[C@H]2SC1.O [Compound 265, Cephalexin hydrate] | 87% |
| Br.Oc1cc2c(c(Cl)c1O)CCNCC2c1ccccc1 (racemic) [Compound 1133, (±)-6-Chloro-PB hydrobromide] | 99% |
| CC(O)C(O)[C@H]1CNc2nc(N)[nH]c(=O)c2N1.Cl.Cl (stereo partly drawn) [Compound 1173, (6R)-5,6,7,8-Tetrahydro-L-biopterin hydrochloride] | 109% |
| CN1C[C@H](O)[C@@H](O)[C@H](O)[C@H]1CO [Compound 742, N-Methyl-1-deoxynojirimycin] | 101% |

same assay, conditions: read-out: % of the SCH23390 effect (percent inhibition of receptor response relative to the SCH23390 control)

| Structure (SMILES) | inhibition at 10 µM |
| --- | --- |
| CN(C)CCCN1c2ccccc2Sc2ccc(C(F)(F)F)cc21 [Compound 1163, Triflupromazine hydrochloride] | 88% |
